ChEMBL document CHEMBL1121459, “Relationship of octanol/water partition coefficient and molecular weight to rat brain capillary permeability” (J Med Chem, 1980)

Legend:
physchem = settings: octanol/water
Description: Partition coefficient (logP)

[1] = octanol/water
Description: Partition coefficient (logP)

Compound | logP (physchem) | logP [1]
CC[C@]1(O)C[C@H]2CN(CCc3c([nH]c4ccccc34)[C@@](C(=O)OC)(c3cc4c(cc3OC)N(C=O)[C@H]3[C@@](O)(C(=O)OC)[C@H](OC(C)=O)[C@]5(CC)C=CCN6CC[C@]43[C@@H]65)C2)C1 [VINCRISTINE] | 2.8 | –
CCc1nc(N)nc(N)c1-c1ccc(Cl)c(Cl)c1 [ETOPRINE] | 3.19 | –
O=NN(CCCl)C(=O)NCCCl [CARMUSTINE] | 1.54 | –
OC[C@@H](O)[C@@H](O)[C@H](O)[C@H](O)CO [MANNITOL] | -3.1 | –
O[C@@H]1CO[C@H]2[C@@H]1OC[C@H]2O | -1.29 | –
Cc1cc(N2C(N)=NC(N)=NC2(C)C)ccc1OCc1cccc(C(N)=O)c1 | -2.46 | –
O=NN(CCCl)C(=O)NC1CCC(=O)NC1=O (stereo not given) | 0.37 | –
O=C1NC2(CCCCC2)C(=O)N1CCN(CCCl)CCCl [SPIROMUSTINE] | 2.47 | –
COc1cccc2c1C(=O)c1c(O)c3c(c(O)c1C2=O)C[C@@](O)(C(=O)CO)C[C@@H]3O[C@H]1C[C@H](N)[C@H](O)[C@H](C)O1 [DOXORUBICIN] | -0.1 | –
OC(CBr)C(O)C(O)C(O)CBr (stereo not given) | -0.29 | –
O=NN(CCCl)C(=O)NC1CCCCC1 [LOMUSTINE] | 2.83 | –
OCC(O)CO [GLYCERIN] | -1.75 | –
O=C1OC(C(O)CO)C(O)=C1O (stereo not given) | – | -4.04
CN1CC(=O)NC1=N [CREATININE] | – | -1.77
Cc1ncc([N+](=O)[O-])n1CCO [METRONIDAZOLE] | -0.16 | –
BLEOMYCIN | – | -3.3
COc1cc([C@@H]2c3cc4c(cc3[C@@H](O[C@@H]3O[C@@H]5CO[C@@H](c6cccs6)O[C@H]5[C@H](O)[C@H]3O)[C@H]3COC(=O)[C@H]23)OCO4)cc(OC)c1O [TENIPOSIDE] | – | 2.8
NC(N)=O [UREA] | – | -2.8
O=c1[nH]c(=O)n(C2CCCO2)cc1F (stereo not given) [TEGAFUR] | -0.48 | –
O=c1[nH]cc(F)c(=O)[nH]1 [FLUOROURACIL] | -0.95 | –
